# Reference: patent US8258175B2, “Isoindolin-1-one derivatives” (Cancer Research Technology Limited, priority 2004, dated 2012)
# Where no end group is shown, it is not given here.
# What was measured:
# MDM2-p53 interaction [1] = target: T1, MDM2-p53 interaction (Homo sapiens, UniProt Q00987); assay: Preliminary screening, in vitro MDM2-p53 binding assay; conditions: preliminary screening studies; read-out: IC50 (inhibition of the MDM2-p53 interaction)
# T1 construct: made in house; host or cells: in vitro translation (cell-free)
# T1 sequence (Q00987 whole entry): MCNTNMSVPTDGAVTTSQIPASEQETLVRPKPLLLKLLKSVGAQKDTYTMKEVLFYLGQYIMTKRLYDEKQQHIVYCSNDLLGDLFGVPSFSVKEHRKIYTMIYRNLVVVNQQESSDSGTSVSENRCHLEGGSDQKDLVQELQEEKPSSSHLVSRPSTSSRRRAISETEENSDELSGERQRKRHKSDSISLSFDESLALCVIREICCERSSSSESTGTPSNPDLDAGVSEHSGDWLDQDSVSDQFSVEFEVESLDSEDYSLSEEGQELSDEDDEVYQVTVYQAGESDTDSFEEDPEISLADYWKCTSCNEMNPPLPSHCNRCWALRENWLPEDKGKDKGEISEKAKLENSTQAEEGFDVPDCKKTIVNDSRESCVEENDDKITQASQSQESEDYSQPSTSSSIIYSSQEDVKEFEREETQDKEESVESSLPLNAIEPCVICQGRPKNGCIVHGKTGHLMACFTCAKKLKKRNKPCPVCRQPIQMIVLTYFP
# Text: Studies of the p53 binding pocket on the MDM2 protein guided the nature of the molecules synthesised. Thus the present invention provides small molecule inhibitors of MDM2-p53 interaction based on an isoindolinone scaffold.
# MDM2-p53 interaction [2] = target: T1, MDM2-p53 interaction; assay: ELISA assay of MDM2-p53 complex formation (MDM2 binding to immobilised IP3 p53-derived peptide); conditions: n=3 independent determinations; 5% DMSO; interpolated from three standard concentrations
# Method: Streptavidin-coated 96-well plates are used to immobilise a biotin-tagged IP3 p53-derived peptide ([…]). This is a peptide analogue derived from the p53 binding site for MDM2 ([…]). […] Aliquots of MDM2 generated by in vitro translation are pre-incubated for 20 minutes at room temperature (i.e. 20-25° C.) with test compounds and controls, before transfer into the IP3-coated 96-well plates. Following a further incubation period of 90 minutes at 4° C., the plates are washed to remove unbound MDM2 and the residual bound MDM2 is detected using a primary monoclonal antibody (MDM2 Ab-1, clone IF2, Oncogene Research Products) and HRP-conjugated secondary antibody (Goat anti-mouse, Dako PO447). The HRP (horseradish peroxidase) is measured by a chemiluminescence reaction using standard reagents (Amersham Pharmacia™ RPN 2106) and an automatic injection 96-well plate illuminometer (EG & G Berthold Microplate LB 96V).
# Compound NU8231 is currently included as a standard “lead compound” positive control. […] The AP peptide is included as a positive control for biological evaluation of the isoindolinones in the cell free binding assays.
# All compounds are dissolved in DMSO and tested at three standard concentrations (initially 20 μM, 100 μM and 500 μM) in the presence of a fixed final concentration of 5% DMSO. The percentage inhibition of complex formation is expressed relative to a DMSO only control and an IC50, defined as the concentration required for 50% inhibition of MDM2-p53 complex formation, determined by interpolation.
# [3] = test system: SJSA cells (MDM2 amplified); assay: Western blot of SJSA cells treated with compound; type: cell-based; conditions: SJSA cells, 5, 10 and 20 μM, lysed at 6 hours
# Method: Osteosarcoma cell line SJSA-1 was plated out in 55 mm dishes at a density of 2.5×10^5 cells in 3 mL of RPMI 1640 medium (Sigma) supplemented with 10% foetal bovine serum (FBS, Gibco), 1% (v/v) HEPES (Gibco), 1% (v/v) sodium pyruvate (Gibco) and 1.25 g/500 ml glucose (Sigma) for 48 hours in a 37° C. humidified incubator (Sanyo, MCO 20AIC) at a CO2 concentration of 5%.
# The dishes were treated with NU8231 at a final concentration of 5, 10, and 20 μM (at 1% DMSO) together with a 1% DMSO and an untreated control sample for 6 hours. The medium was then aspirated and the dishes were washed with 3 mL of cold PBS. The cells were then lysed in 40 μL of Sodium Dodecyl Sulphate (SDS, Sigma) lysis buffer, boiled at 100° C. for 10 minutes before sonication for 3×5 seconds at 20 microns (Soniprep 150, MSE).
# The protein concentration for each of the samples was then determined using BCA Protein Assay Kit (Pierce), and 1:1 loading buffer consisting of β-mercaptoethanol (Sigma) and 0.5% bromophonol-blue (Sigma) were added to 40 μg of protein and made up to a final volume of 30 μL and boiled for 5 minutes at 100° C.
# The samples were then loaded onto a precast 4-20% gradient polyacrylamide Tris-Glycine gels (15 wells, 1.5 mm thickness, Invitrogen Life Technologies), along with a pre-stained marker protein (SeeBlue, Invitrogen). The Gels were processed in Novex XCell (Invitrogen) at 180V and blotted onto a High Bond C membrane (Amersham Life Science) overnight at 30V.
# The membrane was then blocked for one hour at room temperature in TBS-Tween containing 5% non-fat milk (TBST-M) followed by incubation with primary antibodies for MDM2 (MDM2-Ab1, 1:500, Oncogene), p53 (p53-D07, 1:1000, Novacastra), p21 (p21 Ab1, 1:100, Oncogene) and Actin (Actin AC40, 1:1000, Sigma) in PBST-M for 1 hour.
# The membrane was then washed three times in TBST (15 minutes per wash) and then incubated for an additional 1 hour with a anti mouse or a rabbit horseradish peroxidase (HRP) secondary antibody (Dako, 1:1000) in PBST-M followed by a final wash consisting of six washes with TBST at 5 minutes per wash. […]
# MDM2 = MDM2 (Homo sapiens, UniProt Q00987); conditions: Stoll et al 2001; cited from earlier work
# MDM2, sequence (Q00987 whole entry): as above
compound,measurement,setting,value
"CCCOC1(c2ccccc2)c2ccccc2C(=O)N1Cc1ccccc1 (stereo not drawn) [NU8001, 2-benzyl-3-phenyl-3-propoxy isoindolin-1-one]",IC50,MDM2-p53 interaction [1],~200 µM
"CCCNC1(c2ccccc2)c2ccccc2C(=O)N1Cc1ccccc1 (stereo not drawn) [NU8006, 2-benzyl-3-phenyl-3-(propylamino)isoindolin-1-one]",IC50,MDM2-p53 interaction [1],~200 µM
"CCCOC1(c2ccccc2)c2ccccc2C(=O)N1CCC (stereo not drawn) [NU8009, 2-propyl-3-phenyl-3-propoxy isoindolinin-1-one]",IC50,MDM2-p53 interaction [1],~200 µM
"CCCN1C(=O)c2ccccc2C1(OCc1ccc(C(C)(C)C)cc1)c1ccccc1 (stereo not drawn) [NU8223, 3-(4-tert-Butylbenzyloxy)-3-phenyl-2-propyl-2,3-dihydroisoindolin-1-one]",IC50,MDM2-p53 interaction [2],> 500 µM
same,melting point,,118.7 to 119.9 °C
"CCCN1C(=O)c2ccccc2C1(OCc1cc(OC)c(O)c(OC)c1)c1ccc(Cl)cc1 (stereo not drawn) [NU8231, 3-(4-Chlorophenyl)-3-(4-hydroxy-3,5-dimethoxybenzyloxy)-2-propyl-2,3-dihydroisoindolin-1-one]",MDM2 level (Western blot),[3],dose dependent increase
same,p21 level (Western blot),[3],dose dependent increase
same,p53 levels (Western blot),[3],No change
"IP3: biotin-tagged p53-derived peptide (MPRFMDYWEGLN), analogue derived from the p53 binding site for MDM2 (also: biotin tag, place not given here)",affinity for MDM2 relative to the native p53 peptide,MDM2,higher affinity for MDM2 than the native peptide
